Source: ChEMBL document CHEMBL5154709, “Tetrazole derivatives bearing benzodiazepine moiety-synthesis and action mode against virulence of Candida albicans” (Eur J Med Chem, 2022)
In brackets after ≈: the same amount, converted by molar mass. Activity calls are given as the source filed them. No cut-off for these calls is given here.

Experiments:
[1] = tested on: Candida albicans; assay: Induction of reactive oxygen species generation in Candida albicans cnb1delta/cnb1delta mutant assessed as increase in ROS level at 16 ug/ml incubated for 18 hrs by DCFH-DA staining based flow cytometric analysis (reference value: 4.7+/- 5.9%); assay type: functional; details: dose 16 µg/ml
[2] = tested on: Vero; assay: Cytotoxicity against African green monkey Vero cells at > 64 ug/ml measured after 24 hrs by XTT assay; assay type: toxicity, cell-based; details: chlorocebus sabaeus, dose > 64 µg/ml
[3] = Toxicity in Galleria mellonella larvae assessed as change in morphology at 16 ug/ml measured after 5 days by Hematoxylin and eosin staining; details: 120 h, dose 16 µg/ml, time 5 day
[4] = tested on: Candida albicans; assay: Antifungal against Candida albicans cnb1delta/cnb1delta mutant biofilm assessed as oxidative stress by measuring appearance of spherical cells at 16 ug/ml incubated for 18 hrs by PI/acridine orange double staining based confocal laser scanning microscopic analysis; assay type: functional, organism-based; details: dose 16.0 µg/ml
[5] = tested on: Candida albicans; assay: Induction of macrophage-mediated Candida albicans SC5314 phagocytosis assessed as change in hyphae properties at 16 ug/ml incubated for 18 hrs in presence of mouse RAW264.7 macrophages by PI/Acridine orange double staining based confocal laser scanning microscopic analysis; assay type: functional; details: dose 16.0 µg/ml
[6] = tested on: Candida albicans; assay: Effect on HSP90 expression in Candida albicans cnb1delta/CNB1 mutant assessed as decrease in relative expression of HSP90 gene level at 2 ug/ml incubated for 18 hrs by RT-PCR analysis; assay type: functional; details: dose 2.0 µg/ml
[7] = tested on: Candida albicans; assay: Antifungal activity against Candida albicans SC5314 assessed as inhibition of fungal growth at 0.125 ug/ml incubated for 18 hrs by M27-A3 based microdilution method relative to control; assay type: functional
[8] = tested on: Candida albicans; assay: Antifungal activity against Candida albicans SC5314 assessed as inhibition of fungal growth at 16 ug/ml incubated for 18 hrs by M27-A3 based microdilution method relative to control; assay type: functional
[9] = tested on: Candida albicans; assay: Antifungal activity against Candida albicans SC5314 assessed as inhibition of fungal growth at 2 ug/ml incubated for 18 hrs by M27-A3 based microdilution method relative to control; assay type: functional
[10] = tested on: Candida albicans; assay: Antifungal against Candida albicans SC5314 biofilm co-cultured with African green monkey Vero cells assessed as lysosomal membrane permeabilization at 16 ug/ml incubated for 18 hrs by PI/acridine orange double staining based confocal laser scanning microscopic analysis; assay type: functional, organism-based; details: dose 16.0 µg/ml
[11] = tested on: Candida albicans; assay: Induction of reactive oxygen species generation in Candida albicans BWP17 assessed as increase in ROS level at 16 ug/ml incubated for 18 hrs by DCFH-DA staining based flow cytometric analysis (reference value: 7.2+/- 0.2%); assay type: functional; details: dose 16 µg/ml
[12] = tested on: Candida albicans; assay: Antifungal activity against Candida albicans SC5314 assessed as inhibition of fungal growth at 0.125 ug/ml incubated for 48 hrs by M27-A3 based microdilution method relative to control; assay type: functional
[13] = tested on: Candida albicans; assay: Induction of apoptosis in Candida albicans SC5314 protoplast cells assessed as necrotic cells at 16 ug/ml incubated for 18 hrs by PI/Annexin V staining based flow cytometry assay; assay type: functional; details: dose 16 µg/ml
[14] = tested on: Candida albicans; assay: Induction of apoptosis in Candida albicans SC5314 non-protoplast cells assessed as necrotic cells at 16 ug/ml incubated for 18 hrs by PI/Annexin V staining based flow cytometry assay; assay type: functional; details: dose 16 µg/ml
[15] = tested on: Candida albicans; assay: Induction of reactive oxygen species generation in Candida albicans SC5314 assessed as increase in ROS level at 16 ug/ml incubated for 18 hrs by DCFH-DA staining based flow cytometric analysis (reference value: 0.77+/- 0.4%); assay type: functional; details: dose 16 µg/ml
[16] = tested on: Candida albicans; assay: Antifungal activity against Candida albicans SC5314 assessed as inhibition of fungal growth at 0.5 ug/ml incubated for 48 hrs by M27-A3 based microdilution method relative to control; assay type: functional
[17] = tested on: Candida albicans; assay: In vivo antifungal activity against Candida albicans SC5314 infected in Galleria mellonella larvae assessed as survival of larvae by measuring health score index at 16 ug/ml administered 1 hr prior to infection measured within 5 days by Hematoxylin and eosin staining; assay type: functional, organism-based; details: dose 16.0 µg/ml, time 5.0 day
[18] = tested on: Candida albicans; assay: Antifungal activity against Candida albicans SC5314 assessed as inhibition of fungal growth at 1 ug/ml incubated for 18 hrs by M27-A3 based microdilution method relative to control; assay type: functional
[19] = tested on: Candida tropicalis; assay: Inhibition of ergosterol biosynthesis in Candida tropicalis C129 assessed as reduction in ergosterol level incubated for 18 hrs by spectrophotometric analysis; assay type: functional; details: dose 0.06-32 µg/ml, DDE = dose-dependent effect
[20] = tested on: Candida albicans; assay: Antifungal activity against Candida albicans SC5314 assessed as inhibition of fungal growth at 8 ug/ml incubated for 18 hrs by M27-A3 based microdilution method relative to control; assay type: functional
[21] = tested on: Candida albicans; assay: Antifungal activity against Candida albicans SC5314 assessed as inhibition of fungal growth at 0.25 ug/ml incubated for 18 hrs by M27-A3 based microdilution method relative to control; assay type: functional
[22] = tested on: Candida albicans; assay: Antifungal activity against Candida albicans SC5314 assessed as inhibition of fungal growth at 4 ug/ml incubated for 18 hrs by M27-A3 based microdilution method relative to control; assay type: functional
[23] = tested on: Candida albicans; assay: Antifungal activity against Candida albicans SC5314 assessed as inhibition of fungal growth at 0.0625 ug/ml incubated for 48 hrs by M27-A3 based microdilution method relative to control; assay type: functional
[24] = tested on: Candida albicans; assay: Antifungal against Candida albicans cnb1delta/cnb1delta mutant biofilm assessed as apoptotic cells by measuring lysosomal membrane permeabilization at 16 ug/ml incubated for 18 hrs by PI/acridine orange double staining based confocal laser scanning microscopic analysis; assay type: functional, organism-based; details: dose 16.0 µg/ml
[25] = tested on: Candida albicans; assay: Antifungal activity against Candida albicans SC5314 assessed as inhibition of fungal growth at 0.5 ug/ml incubated for 18 hrs by M27-A3 based microdilution method relative to control; assay type: functional
[26] = Cytotoxicity against human TR146 cells at more than 64 ug/ml measured after 24 hrs by XTT assay; assay type: toxicity, cell-based; details: tr146, 24 h, dose 64 µg/ml
[27] = tested on: Candida albicans; assay: Induction of reactive oxygen species generation in Candida albicans CNB1/cnb1delta mutant assessed as increase in ROS level at 16 ug/ml incubated for 18 hrs by DCFH-DA staining based flow cytometric analysis (reference value: 3.8+/- 4.2%); assay type: functional; details: dose 16 µg/ml
[28] = tested on: Candida albicans; assay: Effect on HSP90 expression in Candida albicans cnb1delta/cnb1delta mutant assessed as fold increase in relative expression of HSP90 gene level at 2 ug/ml incubated for 18 hrs in presence of calcium chloride by RT-PCR analysis; assay type: functional; details: dose 2.0 µg/ml
[29] = tested on: Candida albicans; assay: Antifungal activity against Candida albicans assessed as inhibition of fungal growth measured after 48 hrs by M27-A3 based broth microdilution; assay type: functional
[30] = tested on: Candida albicans; assay: Antifungal activity against Candida albicans SC5314 assessed as inhibition of fungal growth at 4 ug/ml incubated for 48 hrs by M27-A3 based microdilution method relative to control; assay type: functional
[31] = tested on: Candida albicans; assay: Antifungal activity against Candida albicans SC5314 assessed as inhibition of fungal growth at 8 ug/ml incubated for 48 hrs by M27-A3 based microdilution method relative to control; assay type: functional
[32] = tested on: Candida albicans; assay: Inhibition of ergosterol biosynthesis in Candida albicans SC5314 assessed as reduction in ergosterol level incubated for 18 hrs by spectrophotometric analysis; assay type: functional; details: dose 0.06-32 µg/ml, DDE = dose-dependent effect
[33] = tested on: Candida albicans; assay: Fungicidal activity against Candida albicans SC5314 assessed as inhibition of fungal growth incubated for 48 hrs by M27-A3 based microdilution method; assay type: functional

Compound: O=C1CN=C(c2ccccc2Br)c2cc(F)ccc2N1CCCn1nnc(-c2ccccc2Cl)n1
- Activity [1]: 2.95%
- Activity [2]: Toxic
- Activity [3]: Non-Toxic
- Activity [4]: Active
- Activity [5]: Active
- Activity [6]: Active
- inhibition at 0.125 µg/mL [7]: 99.3%
- inhibition at 16 µg/mL [8]: 100%
- inhibition at 2 µg/mL [9]: 100%
- Activity [10]: Active
- Activity [11]: 3.7%
- inhibition at 0.125 µg/mL [12]: 99.3%
- Activity [13]: 78.5%
- Activity [14]: 81.37%
- Activity [15]: 24.4%
- inhibition at 0.5 µg/mL [16]: 99.3%
- Activity [17]: Active
- inhibition at 1 µg/mL [18]: 99.1%
- Activity [19]: Dde
- inhibition at 8 µg/mL [20]: 99.1%
- inhibition at 0.25 µg/mL [21]: 100%
- inhibition at 4 µg/mL [22]: 99.3%
- inhibition at 0.0625 µg/mL [23]: 99.4%
- Activity [24]: Active
- inhibition at 0.5 µg/mL [25]: 99.2%
- Activity [26]: Non-Toxic
- Activity [27]: 4.9%
- fold change (FC) [28]: 4
- MIC [29]: 64 µg/mL (≈ 116 µM)
- inhibition at 4 µg/mL [30]: 99.3%
- inhibition at 8 µg/mL [31]: 99.1%
- Activity [32]: Dde
- inhibition (INH) [33]: 99.6%
